Read-outs that look alike come from different tables or passages of the source. A value given as a limit tells only on which side of the number the result lay.

Data set [1] has as its target T1, SETD8 (Homo sapiens, UniProt Q9NQR1).
T1 construct: SETD8 (residues 190–352, C-terminus); N-terminal His-tag; His (N); purchased Reaction Biology Corporation
Nature of the data set: HotSpot KMT activity assay, SETD8. The conditions noted are these: 10-dose mode, 3-fold dilution starting at 100 µM; read-out: ref. cmpd. IC50 (µM), SETD8. Type of data set: biochemical. As for the experimental part:
(§1) Then, ^3H-SAM (final concentration 1 μM) was delivered into the reaction mixture to initiate the reaction. After incubation for 60 min at 30 °C, the reaction mixture was delivered to filter-paper for detection (as assessed by scintillation). […] No inhibitor control (DMSO) was considered as 100% enzyme activity. Data were analyzed using Excel and GraphPad Prism 6.0 software (GraphPad Software Inc., San Diego, CA). Values obtained for each compound are mean ± SD determined for two separate experiments.

Data set [2] has as its target T2, PRMT7 (Homo sapiens, UniProt Q9NVM4).
T2 sequence (Q9NVM4 2-692): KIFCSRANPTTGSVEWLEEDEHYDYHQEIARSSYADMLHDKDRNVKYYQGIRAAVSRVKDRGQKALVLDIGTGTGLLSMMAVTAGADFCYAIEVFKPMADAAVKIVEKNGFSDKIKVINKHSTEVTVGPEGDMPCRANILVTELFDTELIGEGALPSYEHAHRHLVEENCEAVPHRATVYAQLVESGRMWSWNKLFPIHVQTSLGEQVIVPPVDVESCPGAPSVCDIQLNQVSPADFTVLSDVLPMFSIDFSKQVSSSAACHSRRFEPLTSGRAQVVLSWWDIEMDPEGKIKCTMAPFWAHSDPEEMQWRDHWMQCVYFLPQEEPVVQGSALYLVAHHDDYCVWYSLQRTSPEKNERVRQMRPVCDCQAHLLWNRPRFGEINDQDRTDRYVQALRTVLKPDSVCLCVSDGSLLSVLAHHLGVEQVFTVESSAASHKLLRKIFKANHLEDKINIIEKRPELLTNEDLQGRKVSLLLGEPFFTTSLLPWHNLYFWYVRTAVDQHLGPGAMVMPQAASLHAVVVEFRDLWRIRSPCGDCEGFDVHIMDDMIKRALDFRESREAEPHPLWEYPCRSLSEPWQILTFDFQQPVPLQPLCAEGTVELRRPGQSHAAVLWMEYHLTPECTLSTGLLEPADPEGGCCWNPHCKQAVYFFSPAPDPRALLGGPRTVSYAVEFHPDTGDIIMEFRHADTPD
Description: Radioisotope-based filter-binding (HotSpot) assay, PRMT7.
Description: (§2) Then, ^3H-SAM (final concentration 1 μM) was delivered into the reaction mixture to initiate the reaction. After incubation for 60 min at 30 °C, the reaction mixture was delivered to filter paper for detection (as assessed by scintillation). Data were analyzed using Excel and GraphPad Prism 6.0 software (GraphPad Software Inc., San Diego, CA) for IC50 curve fits using sigmoidal dose vs response-variable slope (four parameters) equations.

In data set [3] the target is PRMT3 (Homo sapiens, UniProt O60678). Nature of the data set: Radioisotope-based filter-binding (HotSpot) assay, PRMT3.
Chain of PRMT3 (O60678 2-531): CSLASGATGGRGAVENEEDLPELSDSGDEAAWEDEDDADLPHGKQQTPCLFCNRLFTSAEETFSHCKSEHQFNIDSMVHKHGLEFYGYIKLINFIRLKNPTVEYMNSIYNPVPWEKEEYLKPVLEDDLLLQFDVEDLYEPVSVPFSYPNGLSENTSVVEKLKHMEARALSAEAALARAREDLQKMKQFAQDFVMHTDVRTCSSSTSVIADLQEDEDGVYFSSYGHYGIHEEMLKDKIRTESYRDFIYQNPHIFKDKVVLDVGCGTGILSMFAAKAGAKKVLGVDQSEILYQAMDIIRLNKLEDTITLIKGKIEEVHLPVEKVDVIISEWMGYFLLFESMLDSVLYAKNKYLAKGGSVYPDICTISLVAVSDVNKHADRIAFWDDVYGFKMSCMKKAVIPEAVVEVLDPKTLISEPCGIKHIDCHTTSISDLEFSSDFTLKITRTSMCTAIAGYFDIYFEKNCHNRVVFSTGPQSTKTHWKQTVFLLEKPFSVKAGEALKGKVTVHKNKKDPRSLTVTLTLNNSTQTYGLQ
Description: as §2
For data set [4], the target named is T3, PRMT4 (Homo sapiens, UniProt Q86X55).
T3 sequence (Q86X55 2-608): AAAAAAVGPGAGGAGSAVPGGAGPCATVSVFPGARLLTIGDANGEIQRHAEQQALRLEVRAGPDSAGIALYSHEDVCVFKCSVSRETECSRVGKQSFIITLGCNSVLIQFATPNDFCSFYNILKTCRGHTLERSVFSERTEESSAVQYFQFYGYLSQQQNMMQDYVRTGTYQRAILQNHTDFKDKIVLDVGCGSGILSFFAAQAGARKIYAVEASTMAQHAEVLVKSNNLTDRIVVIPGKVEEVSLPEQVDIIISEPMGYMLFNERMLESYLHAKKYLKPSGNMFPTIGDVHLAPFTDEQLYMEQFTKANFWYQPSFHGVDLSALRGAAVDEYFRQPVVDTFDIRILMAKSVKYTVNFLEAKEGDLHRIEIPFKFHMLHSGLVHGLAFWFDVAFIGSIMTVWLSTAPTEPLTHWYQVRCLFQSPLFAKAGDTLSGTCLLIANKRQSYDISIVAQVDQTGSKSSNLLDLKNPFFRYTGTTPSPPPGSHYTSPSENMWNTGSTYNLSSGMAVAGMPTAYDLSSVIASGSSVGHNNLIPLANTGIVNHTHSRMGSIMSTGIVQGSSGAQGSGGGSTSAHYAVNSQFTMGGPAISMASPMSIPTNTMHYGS
Nature of the data set: Radioisotope-based filter-binding (HotSpot) assay, PRMT4.
Description: as §2

Data set [5] concerns the target T4, human PRMT4 (full length) (Homo sapiens, UniProt Q86X55).
T4 construct: Full-length recombinant PRMT4 (Active motif, # 81107); purchased Active motif # 81107
T4 sequence (Q86X55 1-608): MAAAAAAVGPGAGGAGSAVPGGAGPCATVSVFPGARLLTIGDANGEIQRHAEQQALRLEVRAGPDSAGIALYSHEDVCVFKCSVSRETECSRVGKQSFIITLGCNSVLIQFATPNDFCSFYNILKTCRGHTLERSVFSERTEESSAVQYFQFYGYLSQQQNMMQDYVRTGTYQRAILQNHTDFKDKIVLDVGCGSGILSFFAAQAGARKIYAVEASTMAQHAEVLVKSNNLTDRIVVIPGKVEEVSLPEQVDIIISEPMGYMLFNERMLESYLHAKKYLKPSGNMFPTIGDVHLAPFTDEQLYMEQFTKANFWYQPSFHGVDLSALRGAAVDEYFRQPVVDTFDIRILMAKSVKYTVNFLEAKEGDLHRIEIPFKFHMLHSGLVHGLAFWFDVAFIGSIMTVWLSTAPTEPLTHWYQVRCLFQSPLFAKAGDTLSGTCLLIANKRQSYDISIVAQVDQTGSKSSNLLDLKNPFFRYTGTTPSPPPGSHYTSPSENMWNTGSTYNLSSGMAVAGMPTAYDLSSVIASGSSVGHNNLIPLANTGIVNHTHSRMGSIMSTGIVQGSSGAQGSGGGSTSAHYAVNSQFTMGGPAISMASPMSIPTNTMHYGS
Nature of the data set: SPR binding to immobilized PRMT4. The conditions noted are these: for koff / kon: immobilized PRMT4; for kon: read-out: kon; for τR: in vitro residence time, τ = 1/koff. Here is the method: To this aim, human PRMT4 (full length) was covalently immobilized on a sensor chip surface using an amine-coupling approach, and the three compounds were injected at different concentrations over the protein surface. To reduce false positives from detergent-sensitive, nonspecific aggregation-based binding, detergents (0.05% Tween-20) were added to the running buffer in all experiments.
SPR experiments were performed on a Biacore T200 biosensor (Cytiva). PBS buffer (phosphate-buffered saline, pH 7.4) supplemented with 0.05% Tween-20 was used as the running buffer. […] One flow cell was left empty for background subtractions. […] Each compound was tested in […], prepared starting from 640 to 10 nM. Binding experiments were performed at 25 °C by using a flow rate of 30 μL/min, with 90 s monitoring of association and 90 s monitoring of dissociation. Regeneration of the surfaces was performed, when necessary, by a 10 s injection of 5 mM NaOH. […] The corrected sensorgrams for each compound were fitted simultaneously using a 1:1 Langmuir model to obtain equilibrium dissociation constants (KD) and kinetic dissociation (koff) and association (kon) constants.

Data set [6] deals with PRMT6 (Homo sapiens, UniProt Q96LA8). Nature of the data set: Radioisotope-based filter-binding (HotSpot) assay, PRMT6.
Chain of PRMT6 (Q96LA8 2-375): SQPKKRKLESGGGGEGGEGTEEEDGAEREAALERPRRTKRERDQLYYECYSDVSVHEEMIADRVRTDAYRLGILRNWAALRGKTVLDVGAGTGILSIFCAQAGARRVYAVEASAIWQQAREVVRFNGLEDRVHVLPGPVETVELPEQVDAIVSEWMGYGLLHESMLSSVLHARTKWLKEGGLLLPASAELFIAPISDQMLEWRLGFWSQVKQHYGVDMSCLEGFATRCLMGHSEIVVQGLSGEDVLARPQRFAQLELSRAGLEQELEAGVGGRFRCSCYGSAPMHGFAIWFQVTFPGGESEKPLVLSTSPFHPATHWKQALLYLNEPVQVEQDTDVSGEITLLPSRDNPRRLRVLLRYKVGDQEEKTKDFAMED
Description: as §2
The target in data set [7] is PRMT5/MEP50 complex (Homo sapiens, UniProt O14744). Description: Radioisotope-based filter-binding (HotSpot) assay, PRMT5.
Chain of PRMT5/MEP50 complex (O14744 2-637): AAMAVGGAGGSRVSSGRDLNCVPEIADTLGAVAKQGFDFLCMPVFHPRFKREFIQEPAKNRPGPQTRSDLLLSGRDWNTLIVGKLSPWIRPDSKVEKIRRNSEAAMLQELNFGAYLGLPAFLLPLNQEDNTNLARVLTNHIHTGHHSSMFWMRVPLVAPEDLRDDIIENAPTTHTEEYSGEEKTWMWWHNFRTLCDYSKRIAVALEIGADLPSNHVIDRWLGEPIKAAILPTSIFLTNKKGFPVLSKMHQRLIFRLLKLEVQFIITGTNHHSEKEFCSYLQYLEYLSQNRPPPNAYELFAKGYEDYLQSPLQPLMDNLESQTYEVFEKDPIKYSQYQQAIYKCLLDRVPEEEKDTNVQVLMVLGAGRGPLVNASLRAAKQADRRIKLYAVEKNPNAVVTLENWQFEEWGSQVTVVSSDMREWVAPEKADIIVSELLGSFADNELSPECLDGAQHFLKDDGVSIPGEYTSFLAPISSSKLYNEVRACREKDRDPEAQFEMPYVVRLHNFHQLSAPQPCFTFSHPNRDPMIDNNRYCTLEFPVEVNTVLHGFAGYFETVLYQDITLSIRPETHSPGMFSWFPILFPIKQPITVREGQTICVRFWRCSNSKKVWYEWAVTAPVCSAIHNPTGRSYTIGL
Chain of PRMT5/MEP50 complex (Q9BQA1 2-342 partner limits assumed): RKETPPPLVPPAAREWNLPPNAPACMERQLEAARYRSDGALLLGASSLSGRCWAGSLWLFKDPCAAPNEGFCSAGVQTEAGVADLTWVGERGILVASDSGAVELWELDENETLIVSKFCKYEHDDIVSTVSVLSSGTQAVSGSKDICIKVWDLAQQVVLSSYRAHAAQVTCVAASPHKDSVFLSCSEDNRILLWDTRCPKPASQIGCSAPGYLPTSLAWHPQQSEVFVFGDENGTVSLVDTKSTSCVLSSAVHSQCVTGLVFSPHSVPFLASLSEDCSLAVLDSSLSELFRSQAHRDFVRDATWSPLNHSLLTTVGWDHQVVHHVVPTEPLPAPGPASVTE
Description: as §2
Data set [8] has as its target ΔN(1–60)-PRMT8 (Homo sapiens, UniProt Q9NR22). Description: Radioisotope-based filter-binding (HotSpot) assay, PRMT8.
Description: as §2
Data set [9] concerns the target T5, ASH1L (Homo sapiens, UniProt Q9NR48).
T5 construct: ASH1L (residues 2046–2330, with an N-terminal His-tag); His (N); purchased Reaction Biology Corporation
Description: HotSpot KMT activity assay, ASH1L. In kind it is biochemical. As for the experimental part:
as §1

Data set [10] in a line: Parallel artificial membrane permeability assay (PAMPA). Type of data set: in vitro ADME. The following applies: phosphate buffer pH 7.4, donor 0.2 mM, 24 h at room temperature. Here is the method: A donor solution (0.2 mM) was prepared by diluting 20 mM dimethyl sulfoxide (DMSO) compound stock solution using phosphate buffer (pH 7.4, 0.01 M). Filters were coated with 5 μL of a 1% (w/v) dodecane solution of L-α-phosphatidylcholine. Donor solution (150 μL) was added to each well of the filter plate. To each well of the acceptor plate, 300 μL of solution (5% DMSO in phosphate buffer) was added. […] The sandwich was incubated for 24 h at room temperature under gentle shaking. After the incubation time, the sandwich plates were separated, and 250 μL of the acceptor plate was transferred to a UV quartz microtiter plate and measured by UV spectroscopy, using a Multiskan GO microplate spectrophotometer (Thermo Fisher Scientific) at 250–500 nm at a step of 5 nm. Reference solutions (250 μL) were prepared diluting the sample stock solutions to the same concentration as that with no membrane barrier.
For orientation: In PAMPA a lipid-coated filter parts donor from acceptor wells.

[11] abbreviates: IC50 (μM) PRMT7, radioisotope-based filter assay, 5 μM GST-GAR, 1 μM 3H-SAM.
[12] abbreviates: on increasing the linker between 4-hydroxy-2-naphthoate and guanidine (values equal the ratio to the IC50 of 12c).
The mark [13] stands for this setting: read-out: IC50 (μM) PRMT3, radioisotope-based filter assay, 5 μM histone H4, 1 μM 3H-SAM.
The mark [14] stands for this setting: read-out: IC50 (μM) PRMT6, radioisotope-based filter assay, 5 μM GST-GAR, 1 μM 3H-SAM.
The mark [15] stands for this setting: read-out: IC50 (μM) PRMT5, radioisotope-based filter assay, 5 μM histone H2A, 1 μM 3H-SAM.

Chain of ΔN(1–60)-PRMT8 (Q9NR22 61-394, stated change not applied): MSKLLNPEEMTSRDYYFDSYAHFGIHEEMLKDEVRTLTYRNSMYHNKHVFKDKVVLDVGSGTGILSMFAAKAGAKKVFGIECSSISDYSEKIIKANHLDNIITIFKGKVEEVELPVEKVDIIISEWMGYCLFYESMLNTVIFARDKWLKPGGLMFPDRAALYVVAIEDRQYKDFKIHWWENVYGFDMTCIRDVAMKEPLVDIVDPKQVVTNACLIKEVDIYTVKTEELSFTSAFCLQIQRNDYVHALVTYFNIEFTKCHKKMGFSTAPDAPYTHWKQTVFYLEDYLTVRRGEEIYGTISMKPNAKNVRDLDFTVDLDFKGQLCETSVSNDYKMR
T1 sequence (Q9NQR1 231-393): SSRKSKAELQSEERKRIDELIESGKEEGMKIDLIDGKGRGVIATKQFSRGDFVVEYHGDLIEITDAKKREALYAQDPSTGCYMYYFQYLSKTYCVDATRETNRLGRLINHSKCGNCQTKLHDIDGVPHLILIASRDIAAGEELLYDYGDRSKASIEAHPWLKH

Broadly, the IC50 is the concentration that gives 50% inhibition. Turning to `Cc1ccc(NC2=CC(=O)c3sc(C)nc3C2=O)cc1` [ryuv, ryuvidine, reference compound], the IC50 in data set [1] was 0.186 µM.

For orientation: Kd means the free concentration of one partner at which half of the binding sites on the other are occupied at equilibrium, for simple one-to-one binding. One may read the koff as a measure of how fast the partners let go of each other. What is called kon is a measure of how fast the partners come together. In the case of `COC(=O)c1cc(O)c2cc(NC(=O)NCCCCCCNC(=N)NC[C@H]3O[C@@H](n4cnc5c(N)ncnc54)[C@H](O)[C@@H]3O)ccc2c1` [12d, Methyl 6-(3-(6-(3-(((2R,3S,4R,5R)-5-(6-Amino-9H-purin-9-yl)-3,4-dihydroxytetrahydrofuran-2-yl)methyl)guanidino)hexyl)ureido)-4-hydroxy-2-naphthoate], the IC50 in data set [2] (setting [11]) amounted to 0.41 µM; in [2] (IC50 PRMT7 (Figure 5 heatmap), radioisotope-based filter assay), 0.413 µM; in data set [3] (IC50 (μM) PRMT3, radioisotope-based filter assay, 5 μM histone H4, 1 μM 3H-SAM), 12.2 µM; in data set [3] (IC50 PRMT3 (Figure 5 heatmap), radioisotope-based filter assay) it was 12.2 µM; in data set [4] (IC50 (μM) PRMT4, radioisotope-based filter assay, 5 μM histone H3, 1 μM 3H-SAM), 0.068 µM; in data set [4] (IC50 PRMT4 (Figure 5 heatmap), radioisotope-based filter assay) it was 0.061 µM. In addition, the IC50 in [6] amounted to 47 µM; in [7], 2.6 µM. For the same compound, in data set [4] (setting [12]), the “gain in the inhibitory activity against PRMT4” value is 6.2 fold. The same compound came in with a Kd in [5] of 2.8 µM. In [5] (SPR), this compound gave a koff of 0.76 s⁻¹. Also, the kon in data set [5] (SPR) stood at 270000 M⁻¹ s⁻¹. Further, the “τR” value in data set [5] is listed as 1.31 s. The “gain in the inhibitory activity against PRMT5” value in [7] (setting [12]) was determined as 19.8 fold.

For the compound `COC(=O)c1cc(O)c2cc(NC(=O)NCCCNC(=N)NC[C@H]3O[C@@H](n4cnc5c(N)ncnc54)[C@H](O)[C@@H]3O)ccc2c1` [12a, Methyl 6-(3-(3-(3-(((2R,3S,4R,5R)-5-(6-Amino-9H-purin-9-yl)-3,4-dihydroxytetrahydrofuran-2-yl)methyl)guanidino)propyl)ureido)-4-hydroxy-2-naphthoate], the IC50 in [2] (setting [11]) turned out to be 0.3 µM; in data set [2] (read-out: IC50 PRMT7 (Figure 5 heatmap), radioisotope-based filter assay), 0.315 µM; in data set [3] (setting [13]) it was 57.2 µM; in [8] (read-out: IC50 PRMT8 (Figure 5 heatmap)) it was 8.29 µM; in [6] (setting [14]) it was 72.8 µM; in [7] (setting [15]) it was 52.1 µM.

In data set [9], `CN1C(=O)[C@@]23C[C@]4([C@]56C[C@@]78SS[C@@](CO)(C(=O)N7[C@H]5Nc5ccccc56)N(C)C8=O)c5ccccc5N[C@@H]4N2C(=O)[C@]1(CO)SS3` [chaet, chaetocin, reference compound] yielded an IC50 of 0.14 µM.

By Papp is commonly meant a coefficient for how fast a substance crosses the barrier. A high value points to fast passage. In data set [10], `CC(C)NCC(O)COc1cccc2ccccc12` (stereo not shown) [propranolol, reference compound] showed a Papp at 24 h, 0.2 mM of 6 ×10⁻⁶ cm/s.

For the compound `COC(=O)c1cc(O)c2cc(NC(=O)NCCCCNC(=N)NC[C@H]3O[C@@H](n4cnc5c(N)ncnc54)[C@H](O)[C@@H]3O)ccc2c1` [12b, Methyl 6-(3-(4-(3-(((2R,3S,4R,5R)-5-(6-Amino-9H-purin-9-yl)-3,4-dihydroxytetrahydrofuran-2-yl)methyl)guanidino)butyl)ureido)-4-hydroxy-2-naphthoate], the IC50 in [2] (read-out: IC50 (μM) PRMT7, radioisotope-based filter assay, 5 μM GST-GAR, 1 μM 3H-SAM) was 0.55 µM; in data set [3] (setting [13]), 43.4 µM; in data set [8] (read-out: IC50 (μM) PRMT8, 5 μM histone H4, 1 μM 3H-SAM), 18.7 µM; in data set [4] (read-out: IC50 (μM) PRMT4, radioisotope-based filter assay, 5 μM histone H3, 1 μM 3H-SAM), 2.14 µM; in data set [4] (read-out: IC50 PRMT4 (Figure 5 heatmap), radioisotope-based filter assay) it was 2.14 µM; in data set [6] (setting [14]), over 100 µM. Moreover, in [7] (setting [15]), the IC50 turned out to be 76.7 µM. Besides, the koff in data set [5] (SPR) amounted to 0.015 s⁻¹. For the same compound, in [5] (SPR, immobilized PRMT4, 25 °C, KD from ratio koff/kon), the Kd came to 2.3 µM. The kon in data set [5] (SPR) came out at 6520 M⁻¹ s⁻¹. Moreover, in data set [5], the “τR” value is reported as 66.7 s.

Source of the values: PMC9469100, “Turning Nonselective Inhibitors of Type I Protein Arginine Methyltransferases into Potent and Selective Inhibitors of Protein Arginine Methyltransferase 4 through a Deconstruction–Reconstruction and Fragment-Growing Approach” (Journal of Medicinal Chemistry, 2022).
